Results reported in US20120202822A1, “COMBINATION” (priority 2009, published 2012).

Columns and labels:
Test in all cases: Fixed Ratio Drug Combination Assay, cell proliferation (CellTiter Glo)
Type in all cases: cell-based, human
COLO205 = details: for Ymin/T0: 72 hours; for IC50: Homo sapiens, COLO 205, 72 hours, read-out: gIC50
Description: (§1) Combination drug tests with Compounds A and B were conducted using a panel of cell lines from human colon cancers (n=25) (Table 1). Cell lines were purchased commercially [from ATCC (Manassas, Va., USA) or DSMZ (Braunschweig, Germany)] and grown in RPMI-1640 supplemented with 2 mM glutamine, 1 mM sodium pyruvate and 10% fetal bovine serum and maintained at 37° C. and 5% CO2 in a humid incubator.
(§2) The dilution design of the Fixed Ratio Drug Combination Assay can be seen in FIG. 1. First, the test compounds were prepared as 10 mM stocks in 100% dimethyl sulfoxide (DMSO). Further dilutions of the compounds were made with DMSO. The first test compound (designated as Compound A) is diluted horizontally in a 96 well microtiter plate in rows B-E using a 3-fold dilution series for 10 dilution points. A second test compound (designated as Compound B) is diluted horizontally in a separate 96 well microtiter plate in rows D-G using a 3-fold dilution series for 10 dilution points. The two compounds are combined using equal volumes from each drug plate into cell culture media. […] Compound A is individually titrated in rows B and C, while only Compound B is dosed in rows F and G of the plate. An additional 1:10 dilution of the drugs is performed in cell culture media prior to addition to the cells. Drug addition to the cells results in a further 1:2 dilution of drugs. The total dilution of the drug plate to the cells is […]. The final dosing concentration range for Compound B was 0.1-1000.0 nM and was 0.5-10000.0 nM for Compound A. The positive control consists of culture media with DMSO at 0.1% and cells and no drug. The negative control consists of culture media with DMSO at 0.1%. solution.
(§3) Assays were performed in 96 well microtiter plates with appropriate seeding densities estimated from previous studies of each cell line. Following dosing, the cell lines are incubated at 37° C., 5% CO2 in humid air for 72 hours. Cell proliferation was measured using the CellTiter Glo (Promega Corporation, Madison, Wis., USA) reagent according to the manufacturer's protocol. The plates are treated with CellTiter Glo solution and are analyzed for RLU (relative light units) using a Molecular Devices SpectraMax M5 (Sunnyvale, Calif., USA) plate reader.
(§4) Results are expressed as a percentage of the number of cells present at the time of compound addition value (T0) and plotted against compound(s) concentration. The percent intensity values were used in model 205 of the IDBS XLfit plug-in for Microsoft Excel to calculate gIC50 values using a 4 parameter logistical fit. Background correction is made by subtraction of values from wells containing no cells. The midpoint of the growth window (the gIC50) falls half way between the number of cells at the time of compound addition and the growth of control cells treated with DMSO at 72 hrs. The number of cells at time zero is divided from the intensity value at the bottom of the response curve (Ymin) to generate a measure for cell death (Ymin/T0). A value below 1 for Ymin/T0 indicates stronger potency with the treatment when compared to higher values. For duplicate assays, all response metrics are averaged for presentation.
(§5) Three independent metrics were used to analyze the combinatorial effects on growth inhibition of Compound B and Compound A. • 1. Excess over Highest Single Agent (EOHSA)—One standard criterion for measuring drug combinatorial effects is analyzing the effects on cell growth inhibition in absolute terms. In this case, the combination of drugs is compared to the more responsive of the two individual treatments (single agent). For each combination experiment, the percent effect relative to the highest single agent for each dose along the curve is generated. This measure of “Excess of Highest Single Agent (EOHSA)” is one of the criteria used for evaluating synergy of drug combinations. […]

COLO320DM = details: 72 hours; for IC50: Homo sapiens, COLO 320DM, read-out: gIC50
Description: as §1, §2, §3, §4, §5

DLD1 = details: for Ymin/T0: 72 hours; for IC50: Homo sapiens, DLD-1, 72 hours, read-out: gIC50
Description: as §1, §2, §3, §4, §5

HCC2998 = details: for Ymin/T0: 72 hours; for IC50: Homo sapiens, HCC 2998, 72 hours, read-out: gIC50
Description: as §1, §2, §3, §4, §5

HCT8 = details: for Ymin/T0: 72 hours; for IC50: Homo sapiens, HCT-8, 72 hours, read-out: gIC50
Description: as §1, §2, §3, §4, §5

HT29 = details: for Ymin/T0: 72 hours; for IC50: Homo sapiens, HT-29, 72 hours, read-out: gIC50
Description: as §1, §2, §3, §4, §5

KM12 = details: 72 hours; for IC50: Homo sapiens, read-out: gIC50
Description: as §1, §2, §3, §4, §5

LS1034 = details: for Ymin/T0: 72 hours; for IC50: Homo sapiens, LS-1034, 72 hours, read-out: gIC50
Description: as §1, §2, §3, §4, §5

LS174T = details: 72 hours; for IC50: Homo sapiens, read-out: gIC50
Description: as §1, §2, §3, §4, §5

NCIH508 = details: for Ymin/T0: 72 hours; for IC50: Homo sapiens, NCI-H508, 72 hours, read-out: gIC50
Description: as §1, §2, §3, §4, §5

NCIH630 = details: for Ymin/T0: 72 hours; for IC50: Homo sapiens, NCI-H630, 72 hours, read-out: gIC50
Description: as §1, §2, §3, §4, §5

NCIH716 = details: for Ymin/T0: 72 hours; for IC50: Homo sapiens, NCI-H716, 72 hours, read-out: gIC50
Description: as §1, §2, §3, §4, §5

NCIH747 = details: for Ymin/T0: 72 hours; for IC50: Homo sapiens, NCI-H747, 72 hours, read-out: gIC50
Description: as §1, §2, §3, §4, §5

RKO = details: 72 hours; for IC50: Homo sapiens, read-out: gIC50
Description: as §1, §2, §3, §4, §5

SW1417 = details: 72 hours; for IC50: Homo sapiens, read-out: gIC50
Description: as §1, §2, §3, §4, §5

SW1463 = details: 72 hours; for IC50: Homo sapiens, read-out: gIC50
Description: as §1, §2, §3, §4, §5

SW403 = details: for Ymin/T0: 72 hours; for IC50: Homo sapiens, SW-403, 72 hours, read-out: gIC50
Description: as §1, §2, §3, §4, §5

SW480 = details: 72 hours; for IC50: Homo sapiens, read-out: gIC50
Description: as §1, §2, §3, §4, §5

SW48 = details: 72 hours; for IC50: Homo sapiens, read-out: gIC50
Description: as §1, §2, §3, §4, §5

SW948 = details: 72 hours; for IC50: Homo sapiens, read-out: gIC50
Description: as §1, §2, §3, §4, §5

T84 = details: 72 hours; for IC50: Homo sapiens, read-out: gIC50
Description: as §1, §2, §3, §4, §5

Q: For `COc1ncc(-c2ccc3nccc(-c4ccnnc4)c3c2)cc1NS(=O)(=O)c1ccc(F)cc1F` [Compound B, 2,4-difluoro-N-{2-(methyloxy)-5-[4-(4-pyridazinyl)-6-quinolinyl]-3-pyridinyl}benzenesulfonamide], which Ymin/T0 (COLO205) is on record?
A: 1.4

Q: What about the IC50 (COLO205) of the same compound?
A: 12 nM

Q: And the Ymin/T0 (COLO320DM)?
A: 1.5

Q: And the IC50 (COLO320DM)?
A: 4.7 nM

Q: What about the Ymin/T0 (DLD1) of the same compound?
A: 1.8

Q: What about the IC50 (DLD1) of the same compound?
A: 20.5 nM

Q: What about the Ymin/T0 (HCC2998) of the same compound?
A: 0.9

Q: What about the IC50 (HCC2998) of the same compound?
A: 4.7 nM

Q: What about the Ymin/T0 (HCT8) of the same compound?
A: 1.6

Q: What about the IC50 (HCT8) of the same compound?
A: 8.4 nM

Q: And the Ymin/T0 (HT29)?
A: 2.0

Q: And the IC50 (HT29)?
A: 7.4 nM

Q: What about the Ymin/T0 (KM12) of the same compound?
A: 1.4

Q: What about the IC50 (KM12) of the same compound?
A: 22.1 nM

Q: And the Ymin/T0 (LS1034)?
A: 0.5

Q: What about the IC50 (LS1034) of the same compound?
A: 1.4 nM

Q: And the Ymin/T0 (LS174T)?
A: 0.8

Q: And the IC50 (LS174T)?
A: 34.1 nM

Q: And the Ymin/T0 (NCIH508)?
A: 0.5

Q: What about the IC50 (NCIH508) of the same compound?
A: 1.2 nM

Q: And the Ymin/T0 (NCIH630)?
A: 0.9

Q: What about the IC50 (NCIH630) of the same compound?
A: 18.3 nM

Q: What about the Ymin/T0 (NCIH716) of the same compound?
A: 0.7

Q: And the IC50 (NCIH716)?
A: 1.1 nM

Q: What about the Ymin/T0 (NCIH747) of the same compound?
A: 0.5

Q: What about the IC50 (NCIH747) of the same compound?
A: 2.7 nM

Q: And the Ymin/T0 (RKO)?
A: 3.0

Q: And the IC50 (RKO)?
A: 10.9 nM

Q: What about the Ymin/T0 (SW1417) of the same compound?
A: 1.3

Q: And the IC50 (SW1417)?
A: 1.4 nM

Q: What about the Ymin/T0 (SW1463) of the same compound?
A: 0.9

Q: What about the IC50 (SW1463) of the same compound?
A: 8.2 nM

Q: And the Ymin/T0 (SW403)?
A: 0.5

Q: What about the IC50 (SW403) of the same compound?
A: 1.5 nM

Q: And the Ymin/T0 (SW480)?
A: 1.1

Q: And the IC50 (SW480)?
A: 5.4 nM

Q: And the Ymin/T0 (SW48)?
A: 0.4

Q: And the IC50 (SW48)?
A: 2.6 nM

Q: What about the Ymin/T0 (SW948) of the same compound?
A: 0.4

Q: What about the IC50 (SW948) of the same compound?
A: 0.3 nM

Q: And the Ymin/T0 (T84)?
A: 0.7

Q: What about the IC50 (T84) of the same compound?
A: 6 nM

Q: What does the source list for `CC(C)(C)c1nc(-c2cccc(NS(=O)(=O)c3c(F)cccc3F)c2F)c(-c2ccnc(N)n2)s1` [Compound A, N-{3-[5-(2-amino-4-pyrimidinyl)-2-(1,1-dimethylethyl)-1,3-thiazol-4-yl]-2-fluorophenyl}-2,6-difluorobenzenesulfonamide]?
A: Ymin/T0 (COLO205): 1.2; IC50 (COLO205): 7.3 nM; Ymin/T0 (COLO320DM): 4.9; IC50 (COLO320DM): > 10000 nM; Ymin/T0 (DLD1): 6.7; IC50 (DLD1): 199 nM; Ymin/T0 (HCC2998): 2.8; IC50 (HCC2998): 2400 nM; Ymin/T0 (HCT8): 9.2; IC50 (HCT8): > 10000 nM; Ymin/T0 (HT29): 4.0; IC50 (HT29): 17.2 nM; Ymin/T0 (KM12): 8.8; IC50 (KM12): > 10000 nM; Ymin/T0 (LS1034): 1.9; IC50 (LS1034): > 10000 nM; Ymin/T0 (LS174T): 7.0; IC50 (LS174T): > 10000 nM; Ymin/T0 (NCIH508): 2.1; IC50 (NCIH508): 366 nM; Ymin/T0 (NCIH630): 1.9; IC50 (NCIH630): 5000 nM; Ymin/T0 (NCIH716): 1.3; IC50 (NCIH716): > 10000 nM; Ymin/T0 (NCIH747): 1.3; IC50 (NCIH747): > 10000 nM; Ymin/T0 (RKO): 6.7; IC50 (RKO): 8950 nM; Ymin/T0 (SW1417): 1.1; IC50 (SW1417): 246 nM; Ymin/T0 (SW1463): 1.9; IC50 (SW1463): > 10000 nM; Ymin/T0 (SW403): 2.7; IC50 (SW403): > 10000 nM; Ymin/T0 (SW480): 2.9; IC50 (SW480): > 10000 nM; Ymin/T0 (SW48): 4.7; IC50 (SW48): > 10000 nM; Ymin/T0 (SW948): 1.5; IC50 (SW948): > 10000 nM; Ymin/T0 (T84): 2.0; IC50 (T84): > 10000 nM
